DBAASP
≈ marks a conversion by molar mass, not a printed value. One block for each compound: values may come before it.

Tests used:
Assay in all cases: ≥ marks a high value that may be exact or a test limit, other limits are often not marked, values filed in µg/mL are converted to µM
[1] = test system: Staphylococcus epidermidis ATCC 12228
[2] = test system: Escherichia coli ATCC 25922
[3] = test system: Escherichia coli
[4] = test system: Pseudomonas aeruginosa ATCC 27853
[5] = test system: Staphylococcus aureus ATCC 29213
[6] = test system: Staphylococcus aureus
[7] = test system: Pseudomonas aeruginosa

MIC [1]: 0.16 µM (≈ 0.433 µg/mL) | MIC [2]: 0.63 µM (≈ 1.7 µg/mL)
Compound: CC[C@H](C)[C@H](NC(=O)CN)C(=O)N[C@@H](CCCCN)C(=O)N[C@@H](CCCCN)C(=O)N[C@@H](Cc1c[nH]c2ccccc12)C(=O)N[C@@H](CC(C)C)C(=O)N[C@@H](Cc1cnc[nH]1)C(=O)N[C@@H](CO)C(=O)N[C@@H](C)C(=O)N[C@@H](CCCCN)C(=O)N[C@@H](CCCCN)C(=O)N[C@@H](Cc1ccccc1)C(=O)NCC(=O)N[C@@H](CCCCN)C(=O)N[C@@H](CCCCN)C(=O)N[C@@H](Cc1ccccc1)C(=O)N[C@H](C(=O)N[C@@H](CCCCN)C(=O)N[C@@H](CCCCN)C(=O)N[C@H](C(=O)N[C@@H](CCSC)C(=O)N[C@@H](CC(N)=O)C(=O)N[C@@H](CO)C(N)=O)[C@@H](C)CC)C(C)C [GIKKWLHSAKKFGKKFVKKIMNS]

MIC [3]: 0.359 µM (≈ 0.699 µg/mL)
Compound: CC(C)C[C@H](NC(=O)[C@H](CCCN=C(N)N)NC(=O)CNC(=O)CNC(=O)[C@@H](N)CCCN=C(N)N)C(=O)N[C@H]1CSSC[C@@H](C(=O)N[C@H](C(=O)O)[C@@H](C)O)NC(=O)[C@H](C(C)C)NC(=O)[C@@H]2CSSC[C@H](NC(=O)[C@H](Cc3ccc(O)cc3)NC1=O)C(=O)N[C@@H](CCCN=C(N)N)C(=O)N[C@@H](CCCN=C(N)N)C(=O)N[C@@H](CCCN=C(N)N)C(=O)N[C@@H](Cc1ccccc1)C(=O)N2 [RGGRLCYCRRRFCVCT]

MIC [2]: 5 µM (≈ 10.9 µg/mL) | MIC [4]: 20 µM (≈ 43.5 µg/mL) | MIC [5]: 20 µM (≈ 43.5 µg/mL)
Compound: NCC(=O)N[C@@H](CCCN=C(N)N)C(=O)N[C@@H](CCCN=C(N)N)C(=O)N1CCC[C@H]1C(=O)N[C@@H](CCCN=C(N)N)C(=O)N1CCC[C@H]1C(=O)N[C@@H](CCCN=C(N)N)C(=O)N1CCC[C@H]1C(=O)N[C@@H](CCCN=C(N)N)C(=O)N1CCC[C@H]1C(=O)N[C@@H](Cc1c[nH]c2ccccc12)C(=O)N[C@@H](Cc1c[nH]c2ccccc12)C(=O)N[C@@H](Cc1c[nH]c2ccccc12)C(=O)N[C@@H](Cc1c[nH]c2ccccc12)C(=O)N[C@@H](Cc1c[nH]c2ccccc12)C(=O)O [GRRPRPRPRPWWWWW]

MIC [1]: 0.08 µM (≈ 0.218 µg/mL) | MIC [2]: 0.63 µM (≈ 1.72 µg/mL)
Compound: CC[C@H](C)[C@H](NC(=O)CN)C(=O)N[C@@H](CCCCN)C(=O)N[C@@H](CCCCN)C(=O)N[C@@H](Cc1c[nH]c2ccccc12)C(=O)N[C@@H](CC(C)C)C(=O)N[C@@H](Cc1cnc[nH]1)C(=O)N[C@@H](CCCCN)C(=O)NCC(=O)N[C@@H](CCCCN)C(=O)N[C@@H](CCCCN)C(=O)N[C@@H](Cc1ccccc1)C(=O)NCC(=O)N[C@@H](CCCCN)C(=O)N[C@@H](CCCCN)C(=O)N[C@@H](Cc1ccccc1)C(=O)N[C@H](C(=O)N[C@@H](CCCCN)C(=O)N[C@@H](CCCCN)C(=O)N[C@H](C(=O)N[C@@H](CCSC)C(=O)N[C@@H](CC(N)=O)C(=O)N[C@@H](CO)C(N)=O)[C@@H](C)CC)C(C)C [GIKKWLHKGKKFGKKFVKKIMNS]

MIC [1]: 1.25 µM (≈ 3.41 µg/mL) | MIC [2]: 2.5 µM (≈ 6.82 µg/mL)
Compound: CC[C@H](C)[C@H](NC(=O)CN)C(=O)N[C@@H](CCCCN)C(=O)N[C@@H](CCCCN)C(=O)N[C@@H](Cc1c[nH]c2ccccc12)C(=O)N[C@@H](CC(C)C)C(=O)N[C@@H](Cc1cnc[nH]1)C(=O)N[C@@H](CO)C(=O)N1CCC[C@H]1C(=O)N[C@@H](CCCCN)C(=O)N[C@@H](CCCCN)C(=O)N[C@@H](Cc1ccccc1)C(=O)NCC(=O)N[C@@H](CCCCN)C(=O)N[C@@H](CCCCN)C(=O)N[C@@H](Cc1ccccc1)C(=O)N[C@H](C(=O)N[C@@H](CCCCN)C(=O)N[C@@H](CCCCN)C(=O)N[C@H](C(=O)N[C@@H](CCSC)C(=O)N[C@@H](CC(N)=O)C(=O)N[C@@H](CO)C(N)=O)[C@@H](C)CC)C(C)C [GIKKWLHSPKKFGKKFVKKIMNS]

MIC [3]: 20 µM (≈ 36 µg/mL) | MIC [2]: 5 µM (≈ 8.99 µg/mL) | MIC [5]: > 40 µM
Compound: CC(C)C[C@H](NC(=O)[C@H](CCCCN)NC(=O)[C@@H]1CSSC[C@H](NC(=O)[C@H](CC(C)C)NC(=O)[C@H](CCCCN)NC(=O)[C@H](CC(C)C)NC(=O)[C@H](CC(C)C)NC(=O)[C@H](CCCCN)NC(=O)[C@H](CCCCN)NC(=O)[C@@H](N)CC(C)C)C(=O)N[C@@H](CCCCN)C(=O)N[C@@H](CCCCN)C(=O)N[C@@H](CC(C)C)C(=O)N1)C(=O)N[C@@H](C)C(=O)NCC(=O)O [LKKLLKLCKKLCKLAG]

MIC [3]: 3.4 µM (≈ 10.3 µg/mL) | MIC [6]: 20.8 µM (≈ 62.7 µg/mL)
Compound: CC[C@H](C)[C@H](NC(=O)[C@H](Cc1c[nH]c2ccccc12)NC(=O)[C@H](CCCCN)NC(=O)[C@@H]1CCCN1C(=O)[C@H](CC(C)C)NC(=O)[C@H](CCCCN)NC(=O)CNC(=O)[C@@H](NC(=O)[C@@H](NC(=O)[C@H](CO)NC(=O)[C@@H](NC(=O)[C@@H](NC(=O)[C@H](CCCCN)NC(=O)[C@H](CCC(N)=O)NC(=O)[C@H](C)NC(=O)[C@@H](N)CCSC)[C@@H](C)CC)[C@@H](C)CC)[C@@H](C)O)[C@@H](C)CC)C(=O)N[C@H](C(=O)N[C@@H](CCCCN)C(=O)N[C@H](C(=O)N[C@H](C(=O)N[C@@H](CC(N)=O)C(=O)N[C@@H](CCCCN)C(=O)N[C@@H](Cc1ccccc1)C(=O)N[C@H](C(=O)N[C@@H](CCCCN)C(=O)N[C@@H](CCCCN)C(=O)O)[C@@H](C)O)C(C)C)[C@@H](C)O)[C@@H](C)CC [MAQKIISTIGKLPKWIIKTVNKFTKK]

MIC [7]: 86.6 µM (≈ 136 µg/mL) | MIC [6]: 15.5 µM (≈ 24.3 µg/mL)
Compound: CC[C@H](C)[C@H](N)C(=O)N[C@@H](CC(N)=O)C(=O)N[C@@H](Cc1c[nH]c2ccccc12)C(=O)N[C@@H](CC(C)C)C(=O)N[C@@H](CCCCN)C(=O)N[C@@H](CC(C)C)C(=O)NCC(=O)N[C@@H](CCCCN)C(=O)N[C@@H](CCCCN)C(=O)N[C@H](C(=O)N[C@@H](CC(C)C)C(=O)NCC(=O)N[C@@H](C)C(=O)N[C@@H](CC(C)C)C(N)=O)[C@@H](C)CC [INWLKLGKKILGAL]

MIC [7]: > 19.7 µM
Compound: CC[C@H](C)[C@H](NC(=O)[C@H](Cc1ccccc1)NC(=O)[C@H](CO)NC(=O)[C@H](CCCCN)NC(=O)[C@H](Cc1c[nH]c2ccccc12)NC(=O)[C@@H](N)CCCCN)C(=O)N[C@@H](CCCCN)C(=O)N[C@@H](CCCCN)C(=O)N[C@@H](CC(C)C)C(=O)N[C@H](C(=O)N[C@@H](CC(C)C)C(=O)N[C@@H](CCCCN)C(=O)N[C@@H](Cc1ccccc1)C(=O)N[C@@H](CC(C)C)C(=O)N[C@@H](Cc1cnc[nH]1)C(=O)N[C@@H](CO)C(=O)N[C@@H](CCCCN)C(=O)N[C@@H](CCCCN)C(=O)N[C@@H](CCCCN)C(=O)N[C@@H](Cc1ccccc1)C(N)=O)[C@@H](C)O [KWKSFIKKLTLKFLHSKKKF]

MIC [3]: 3.74 µM (≈ 8 µg/mL) | MIC [7]: 7.49 µM (≈ 16 µg/mL) | MIC [6]: 7.49 µM (≈ 16 µg/mL)
Compound: CC(C)C[C@H](NC(=O)CNC(=O)[C@H](C)NC(=O)[C@H](CC(C)C)NC(=O)[C@H](CCCCN)NC(=O)[C@H](CCCCN)NC(=O)[C@H](C)NC(=O)[C@H](CC(C)C)NC(=O)CNC(=O)[C@H](C)NC(=O)[C@H](Cc1c[nH]c2ccccc12)NC(=O)[C@H](CCCCN)NC(=O)[C@H](CCCCN)NC(=O)[C@H](C)NC(=O)[C@H](CC(C)C)NC(=O)CNC(=O)[C@H](C)NC(=O)[C@H](CC(C)C)NC(=O)[C@H](CCCCN)NC(=O)[C@@H](N)CCCCN)C(=O)N[C@@H](C)C(N)=O [KKLAGLAKKWAGLAKKLAGLA]

MIC [2]: 19 µM (≈ 48.7 µg/mL) | MIC [4]: 19 µM (≈ 48.7 µg/mL) | MIC [5]: 76 µM (≈ 195 µg/mL)
Compound: CC[C@H](C)[C@H](NC(=O)CN)C(=O)NCC(=O)N[C@@H](CCCCN)C(=O)N[C@@H](Cc1ccccc1)C(=O)N[C@@H](CC(C)C)C(=O)N[C@@H](Cc1cnc[nH]1)C(=O)N[C@@H](CCCCN)C(=O)N[C@H](C(=O)N[C@@H](CCCCN)C(=O)N[C@@H](CO)C(=O)N[C@@H](Cc1ccccc1)C(=O)NCC(=O)N[C@@H](CCCCN)C(=O)N[C@@H](CO)C(=O)N[C@@H](Cc1c[nH]c2ccccc12)C(=O)N[C@H](C(=O)NCC(=O)N[C@@H](CCC(=O)O)C(=O)N[C@H](C(=O)N[C@@H](CCSC)C(=O)N[C@@H](CC(N)=O)C(=O)N[C@@H](CO)C(N)=O)[C@@H](C)CC)[C@@H](C)CC)C(C)C [GIGKFLHKVKSFGKSWIGEIMNS]

MIC [1]: 0.31 µM (≈ 0.85 µg/mL) | MIC [2]: 1.25 µM (≈ 3.43 µg/mL)
Compound: CC[C@H](C)[C@H](NC(=O)CN)C(=O)N[C@@H](CCCCN)C(=O)N[C@@H](CCCCN)C(=O)N[C@@H](Cc1c[nH]c2ccccc12)C(=O)N[C@@H](CC(C)C)C(=O)N[C@@H](Cc1cnc[nH]1)C(=O)N[C@@H](CO)C(=O)N[C@@H](C)C(=O)N[C@@H](CCCCN)C(=O)N[C@@H](CCCCN)C(=O)N[C@@H](Cc1ccccc1)C(=O)N1CCC[C@H]1C(=O)N[C@@H](CCCCN)C(=O)N[C@@H](CCCCN)C(=O)N[C@@H](Cc1ccccc1)C(=O)N[C@H](C(=O)N[C@@H](CCCCN)C(=O)N[C@@H](CCCCN)C(=O)N[C@H](C(=O)N[C@@H](CCSC)C(=O)N[C@@H](CC(N)=O)C(=O)N[C@@H](CO)C(N)=O)[C@@H](C)CC)C(C)C [GIKKWLHSAKKFPKKFVKKIMNS]

MIC [3]: 2.5 µM (≈ 7.21 µg/mL)
Compound: CC[C@H](C)[C@H](NC(=O)[C@H](Cc1c[nH]c2ccccc12)NC(=O)[C@H](CCCCN)NC(=O)[C@@H]1CCCN1C(=O)[C@H](CC(C)C)NC(=O)[C@H](CCCCN)NC(=O)CNC(=O)[C@@H](NC(=O)[C@@H](NC(=O)[C@H](CO)NC(=O)[C@@H](NC(=O)[C@@H](NC(=O)[C@H](CCCCN)NC(=O)[C@H](CCC(N)=O)NC(=O)[C@H](C)N)[C@@H](C)CC)[C@@H](C)CC)[C@@H](C)O)[C@@H](C)CC)C(=O)N[C@H](C(=O)N[C@@H](CCCCN)C(=O)N[C@H](C(=O)N[C@H](C(=O)N[C@@H](CC(N)=O)C(=O)N[C@@H](CCCCN)C(=O)N[C@@H](Cc1ccccc1)C(=O)N[C@H](C(=O)N[C@@H](CCCCN)C(=O)N[C@@H](CCCCN)C(=O)O)[C@@H](C)O)C(C)C)[C@@H](C)O)[C@@H](C)CC [AQKIISTIGKLPKWIIKTVNKFTKK]

MIC [3]: > 38.9 µM | MIC [6]: > 38.9 µM
Compound: C[C@H](NC(=O)[C@H](C)NC(=O)[C@H](CCCCN)NC(=O)[C@H](C)NC(=O)[C@H](Cc1ccccc1)NC(=O)[C@H](Cc1c[nH]c2ccccc12)NC(=O)[C@H](CCCCN)NC(=O)[C@H](Cc1c[nH]c2ccccc12)NC(=O)[C@H](CCCCN)NC(=O)[C@H](CCCCN)NC(=O)[C@H](C)NC(=O)[C@H](Cc1c[nH]c2ccccc12)NC(=O)[C@@H](N)CCCCN)C(=O)N[C@@H](Cc1c[nH]c2ccccc12)C(=O)N[C@@H](CCCCN)C(=O)N[C@@H](Cc1c[nH]c2ccccc12)C(=O)N[C@@H](Cc1ccc(O)cc1)C(=O)N[C@@H](CCCCN)C(=O)N[C@@H](CCCCN)C(N)=O [KWAKKWKWFAKAAWKWYKK]
